Measurements: patent US20250018048A1, “FLUCONAZOLE-COX INHIBITOR HYBRIDS: A DUAL-ACTING CLASS OF ANTIFUNGAL AZOLES” (Ramot at Tel-Aviv University Ltd., priority 2022, published 2025)
≈ marks a conversion by molar mass, not a printed value.

How the values were obtained:
Format in all cases: cell-based
C. albicans SN152 = assay: MIC80 broth double-dilution assay; conditions: YPAD medium, 30° C., 24 h; parent strain of the erg11ΔΔ/erg3ΔΔ mutant
Experimental: (§1) The antifungal activities of the 24 azole-COX inhibitor hybrids were evaluated against a panel of 16 representative strains of different species of the genus Candida. Candida species cause both superficial and systemic infections. The panel included strains of C. albicans, C. glabrata, C. parapsilosis, C. tropicalis, C. guilliermondii, C. dubliniensis, and C. auris (Table S2). To evaluate antifungal activity, the minimal inhibitory concentration 80% (MIC80) values were determined, which were defined as the lowest drug concentrations with turbidity (measured at OD600) less than or equal to that of specific 1:5 dilutions of the growth control. As controls, FLC and VOR, were tested.
(§2) MIC80 values were determined using the broth microdilution method over a concentration range of 0.003-64 μg/mL. Orange circles represent C. albicans strains, yellow circles represent C. glabrata strains, and green circles represent C. parapsilosis, C. tropicalis, C. dubliniensis and C. auris. Cells were grown in YPAD medium at 30° C. (For C. auris strains 37° C.) 24 h. Each concentration was tested in triplicate, and results were confirmed in at least two independent experiments.
(§3) The clinically used FLC and VOR act primarily by preventing ergosterol biosynthesis via inhibition of CYP51. Analysis was done to determine whether fungal growth inhibition by the hybrids required the presence of the ERG11 gene that encodes for CYP51. The antifungal activities of hybrids 1 and 5 and of FLC and VOR were determined against an erg11ΔΔ/erg3ΔΔ mutant C. albicans strain and against C. albicans SN152 from which this double knockout strain was derived (Table S2). […] Yeast growth was followed at OD600 over 48 h in 96-well plates containing serial double dilutions of the tested hybrids.
(§4) C. albicans, C. glabrata, C. parapsilosis, C. guilliermondii, C. tropicalis, and C. dubliniensis MICs were determined using CLSI M27-A3 guidelines with minor modifications. Starter cultures were streaked from glycerol stock onto YPAD agar plates and grown for 24 h at 30° C. Colonies were suspended in 1 mL PBS and diluted to 1×10^−3 OD600 and then diluted 1:100 into fresh medium. Hybrids dissolved in DMSO were added to YPAD broth (32 μL stock solution in 1218 μL of YPAD broth), and serial double dilutions of hybrids in YPAD were prepared in flat-bottomed 96-well microplates (Corning) to enable testing of concentrations ranging from 64 μg/mL to 0.003 μg/mL. Control wells with yeast cells but no drug and blank wells containing only YPAD were prepared. An equal volume (100 μL) of yeast suspensions in YPAD broth was added to each well with the exceptions of the blank wells. MIC values (Tables S4-S6) were determined after 24 h at 30° C. by measuring the OD600 using a plate reader (Infinite M200 PRO, Tecan). MIC values were defined as the point at which the OD600 was reduced by >80% compared to the no-drug wells. Each concentration was tested in triplicate, and results were confirmed by two independent sets of experiments. FLC and VOR were used as control drugs.

[1] = system: C. albicans 742 (erg11ΔΔ/erg3ΔΔ mutant C. albicans strain); assay: MIC80 broth double-dilution assay, strain lacking CYP51; conditions: YPAD medium, 30° C., 24 h; erg11ΔΔ/erg3ΔΔ mutant lacking CYP51
Experimental: as §1, §3, §4

C. tropicalis 660 = assay: MIC80 broth double-dilution assay; conditions: YPAD medium, 30° C., 24 h
Experimental: as §1, §2, §4

C. albicans P-87 = assay: MIC80 broth double-dilution assay; conditions: YPAD medium, 30° C., 24 h
Experimental: as §1, §2, §4

[2] = system: C. parapsilosis ATCC 22019; assay: MIC80 broth double-dilution assay; conditions: YPAD medium, 30° C., 24 h
Experimental: as §1, §2, §4

C. albicans ATCC 24433 = assay: MIC80 broth double-dilution assay; conditions: YPAD medium, 30° C., 24 h
Experimental: as §1, §2, §4

C. albicans SC5314 = assay: MIC80 broth double-dilution assay; conditions: YPAD medium, 30° C., 24 h
Experimental: as §1, §2, §4

C. albicans ATCC 90028 = assay: MIC80 broth double-dilution assay; conditions: YPAD medium, 30° C., 24 h
Experimental: as §1, §2, §4

C. dubliniensis T-99 = assay: MIC80 broth double-dilution assay; conditions: YPAD medium, 30° C., 24 h
Experimental: as §1, §2, §4

C. guilliermondii T-47 = assay: MIC80 broth double-dilution assay; conditions: YPAD medium, 30° C., 24 h
Experimental: as §1, §4

C. auris ATCC MYA5002 = assay: MIC broth double-dilution assay with MTT (CLSI M27-A3); conditions: YPAD medium, 37° C., 24 h, growth score 0 or 1
Experimental: (§5) Minimal inhibitory concentration broth double-dilution assay: C. auris minimal inhibitory concentrations (MICs) were determined using CLSI M27-A3 guidelines with minor modifications. Starter cultures were streaked from glycerol stock onto YPAD agar plates and grown for 24 h at 37° C. Colonies were suspended in 1 mL PBS and diluted to 1×10^−3 optical density at 600 nm (OD600) and then diluted 1:100 into fresh medium. hybrids dissolved in DMSO were added to YPAD broth (32 μL stock solution in 1218 μL of YPAD broth), and serial double dilutions of hybrids in YPAD were prepared in flat-bottomed 96-well microplates (Corning) to enable testing of concentrations ranging from 64 μg/mL to 0.007 μg/mL. Control wells with yeast cells but no drug and blank wells containing only YPAD were prepared. An equal volume (100 μL) of yeast suspension in YPAD broth was added to each well with the exceptions of the blank wells. After incubation for 24 h at 37° C., MTT (50 μL of a 1 mg/mL solution in ddH2O) was added to each well followed by additional incubation at 37° C. for 2 h. MIC values (Table S3) were defined as the lowest concentration of an antifungal agent that caused a specified reduction in visible growth as per the CLSI M27-A3 protocol. The magnitude of reduction in visible growth was assessed using the following numerical scale: 0, optically clear; 1, slightly hazy; 2, prominent decrease (˜50%) in visible growth; 3, slight reduction in visible growth; and 4, no reduction in visible growth. The MIC was defined based on reduction in growth to 0 or 1. Results were confirmed in two independent experiments, and each concentration was tested in triplicate. FLC and VOR were used as control drugs.

C. auris ATCC MYA5001 = assay: as above; conditions: YPAD medium, 37° C., 24 h, growth score 0 or 1
Experimental: as §5

[3] = system: erg11ΔΔ/erg3ΔΔ mutant C. albicans; assay: Growth curve analysis of C. albicans lacking CYP51; conditions: entire range of concentrations (64 to 1 μg/mL), YPAD, 30° C., 48 h
Experimental: as §3
Cells of erg11ΔΔ/erg3ΔΔ mutant C. albicans were grown in YPAD media at 30° C. and treated with different concentrations of the tested hybrids. Growth was measured by recording the OD600 values every 40 minutes over a 48-h course on an automated plate reader.
Growth curve analyses: Growth curves were determined using the double-dilution method in 96-well plates. Starter cultures were streaked from glycerol stock onto YPAD agar plates and grown for 24 h at 30° C. Colonies were suspended in 1 mL PBS and diluted to 1×10^−3 OD600 and then diluted 1:100 into fresh medium. Hybrids dissolved in DMSO were added to YPAD broth (32 μL stock solution in 1218 μL of YPAD broth), and serial double dilutions of hybrids in YPAD were prepared in flat-bottomed 96-well microplates (Corning) to enable testing of concentrations ranging from 64 μg/mL to 1 μg/mL. Control wells with yeast cells but no drug (100% growth) and blank wells containing only YPAD (0% growth) were prepared. An equal volume (100 μL) of yeast suspensions in YPAD broth was added to each well with the exceptions of the blank wells. Growth was determined at 30° C. by measuring the OD600 using a plate reader (Infinite M200 PRO, Tecan) every 40 minutes over 48 h. Each concentration was tested in triplicate, and results were confirmed by two independent sets of experiments. FLC and VOR were used as control drugs.

Row | SMILES | MIC80 against C. albicans SN152 (C. albicans SN152) [mg/L] | MIC80 against C. albicans 742 [1] [mg/L] | MIC80 against C. tropicalis 660 (C. tropicalis 660) [mg/L] | MIC80 against C. albicans P-87 (C. albicans P-87) [mg/L] | MIC80 against C. parapsilosis 22019 [2] [mg/L] | MIC80 against C. albicans 24433 (C. albicans ATCC 24433) [mg/L] | MIC80 against C. albicans SC5314 (C. albicans SC5314) [mg/L] | MIC80 against C. albicans 90028 (C. albicans ATCC 90028) [mg/L] | MIC80 against C. dubliniensis T-99 (C. dubliniensis T-99) [mg/L] | MIC80 against C. guilliermondii T-47 (C. guilliermondii T-47) [mg/L] | MIC against C. auris 5002 (C. auris ATCC MYA5002) [mg/L] | MIC against C. auris 5001 (C. auris ATCC MYA5001) [mg/L] | Effect on growth (OD600) of the double knockout mutant [3]
1 | O=C(NC[C@](O)(Cn1cncn1)c1ccc(F)cc1F)c1cccnc1Nc1cccc(C(F)(F)F)c1 [Hybrid 17] | 0.06 (≈ 0.116 µM) | 16 (≈ 30.9 µM) | 2 (≈ 3.86 µM) | 0.25 (≈ 0.482 µM) | 0.5 (≈ 0.964 µM) | 0.12 (≈ 0.231 µM) | 0.12 (≈ 0.231 µM) | 0.12 (≈ 0.231 µM) | 2 (≈ 3.86 µM) | 2 (≈ 3.86 µM) | 4 (≈ 7.72 µM) | 0.25 (≈ 0.482 µM) | 
2 | O=C(Cc1ccccc1Nc1c(Cl)cccc1Cl)NC[C@](O)(Cn1cncn1)c1ccc(F)cc1F [Hybrid 23] | 1 (≈ 1.88 µM) | >64 | >64 | 1 (≈ 1.88 µM) | 0.5 (≈ 0.939 µM) | 1 (≈ 1.88 µM) | 1 (≈ 1.88 µM) | 1 (≈ 1.88 µM) | 4 (≈ 7.51 µM) | 8 (≈ 15 µM) | 64 (≈ 120 µM) | 2 (≈ 3.76 µM) | 
3 | CC(C)Cc1ccc(C(C)C(=O)O)cc1 (stereo not shown) [ibuprofen] |  |  |  |  |  |  |  |  |  |  |  |  | Dose-dependent growth reduction
4 | O=C(NC[C@](O)(Cn1cncn1)c1ccc(F)cc1F)c1ccccc1O [Hybrid 21] | 0.12 (≈ 0.321 µM) | >64 | 0.12 (≈ 0.321 µM) | 0.12 (≈ 0.321 µM) | 1 (≈ 2.67 µM) | 0.12 (≈ 0.321 µM) | 0.12 (≈ 0.321 µM) | 0.25 (≈ 0.668 µM) | 2 (≈ 5.34 µM) | 1 (≈ 2.67 µM) | 8 (≈ 21.4 µM) | 0.25 (≈ 0.668 µM) | 
5 | O=C(NC[C@](O)(Cn1cncn1)c1ccc(F)cc1F)c1cc(-c2ccc(F)cc2F)ccc1O [Hybrid 19] | 0.03 (≈ 0.0617 µM) | 64 (≈ 132 µM) | 0.12 (≈ 0.247 µM) | 0.03 (≈ 0.0617 µM) | 0.06 (≈ 0.123 µM) | 0.06 (≈ 0.123 µM) | 0.06 (≈ 0.123 µM) | 0.12 (≈ 0.247 µM) | 2 (≈ 4.11 µM) | 2 (≈ 4.11 µM) | 2 (≈ 4.11 µM) | 0.12 (≈ 0.247 µM) | 
6 | COc1ccc2cc([C@@H](C)C(=O)NC[C@](O)(Cn3cncn3)c3ccc(F)cc3F)ccc2c1 [Hybrid 10] | 0.012 (≈ 0.0257 µM) | >64 | 4 (≈ 8.57 µM) | 0.25 (≈ 0.536 µM) | 1 (≈ 2.14 µM) | 0.25 (≈ 0.536 µM) | 0.12 (≈ 0.257 µM) | 0.12 (≈ 0.257 µM) | 2 (≈ 4.29 µM) | 1 (≈ 2.14 µM) | 16 (≈ 34.3 µM) | 0.5 (≈ 1.07 µM) | 
7 | CC(C(=O)O)c1ccc(-c2ccccc2)c(F)c1 (stereo not shown) [flurbiprofen] |  |  |  |  |  |  |  |  |  |  |  |  | Dose-dependent growth reduction
8 | COc1ccc2cc([C@@H](C)C(=O)NC[C@@](O)(Cn3cncn3)c3ccc(F)cc3F)ccc2c1 [Hybrid 11] | 0.5 (≈ 1.07 µM) | >64 | 8 (≈ 17.1 µM) | 1 (≈ 2.14 µM) | 4 (≈ 8.57 µM) | 1 (≈ 2.14 µM) | 0.5 (≈ 1.07 µM) | 1 (≈ 2.14 µM) | 8 (≈ 17.1 µM) | 8 (≈ 17.1 µM) |  |  | 
9 | COc1ccc2cc([C@H](C)C(=O)NC[C@](O)(Cn3cncn3)c3ccc(F)cc3F)ccc2c1 [Hybrid 9] | 0.012 (≈ 0.0257 µM) | 64 (≈ 137 µM) | 2 (≈ 4.29 µM) | 0.25 (≈ 0.536 µM) | 1 (≈ 2.14 µM) | 0.5 (≈ 1.07 µM) | 0.25 (≈ 0.536 µM) | 0.25 (≈ 0.536 µM) | 4 (≈ 8.57 µM) | 2 (≈ 4.29 µM) |  |  | 
